Test results as given in US20060281755A1, “SYNERGISTIC MODULATION OF FLT3 KINASE USING AMINOPYRIMIDINES KINASE MODULATORS” (priority 2005, published 2006).
Read-outs that look alike come from different tables or passages of the source.

Legend:
Baf3-FLT3 cells = test: 72-hour cell proliferation assay and combination index analysis, Baf3-FLT3; type: cell-based, murine; details: with single sub-IC50 dose of FLT3 inhibitor Compound A (100 nM)
Description: (§1) Dose responses for the individual compounds alone were determined for each cell line using a standard 72-hour cell proliferation assay (see FIGS. 6.1-6.8). […] Each of these chemically distinct compounds alone has potential for the treatment of disorders related to FLT3, such as FLT3 positive AML. […] The FLT3 inhibitors tested had no effect on THP-1 proliferation. […] (See FIGS. 10.1-10.8 and Tables 1-3, hereafter.)
(§2) To statistically evaluate the synergy of a FLT3 inhibitor and an FTI in FLT3 dependent cell lines, dosing combinations were evaluated by the method of Chou and Talalay. See Chou T C, Talalay P. (1984) “Quantitative analysis of dose-effect relationships: the combined effects of multiple drugs or enzyme inhibitors.” Adv Enzyme Regul. 22:27-55. Using this method inhibitors are added simultaneously to cells in a ratio of the IC50 dose of each compound alone. […] Using this method, multiple FTI and FLT3 combinations were evaluated. […]
(§3) Combination Index Analysis. To determine growth inhibition synergy of a FTI and FLT3 inhibitor combination based on the method of Chou and Talalay (Chou and Talalay. See Chou T C, Talalay P. (1984) “Quantitative analysis of dose-effect relationships: the combined effects of multiple drugs or enzyme inhibitors.” Adv Enzyme Regul. 22:27-55.), fixed ratio combination dosing with isobolar statistical analysis was performed. […]

Baf3-ITD cells = test: 72-hour cell proliferation assay and combination index analysis, Baf3-ITD; type: cell-based, murine; details: with single sub-IC50 dose of FLT3 inhibitor Compound A (50 nM)
Description: as §1, §2, §3

[1] = either agent alone or in combination
Description: Mice were dosed orally by gavage with vehicle (control group) or compound at various doses twice-daily (b.i.d.) during the week and once-daily (q.d.) on weekends. Dosing was continued for 11 consecutive days, depending on the kinetics of tumor growth and size of tumors in vehicle-treated control mice. If tumors in the control mice reached 10% of body weight (˜2.0 grams), the study was to be terminated. […] During the study, tumor growth was measured three times-a-week (M, W, F) using electronic Vernier calipers. Tumor volume (mm^3) was calculated using the formula […], where L=length (mm) and W=width (shortest distance in mm) of the tumor. […] Mice were closely examined daily at each dose for overt clinical signs of adverse, drug-related side effects. […]
If tumors in the control mice reached ˜10% of body weight (˜2.0 grams), the study was to be terminated. […] During the study, tumor growth was measured three times-a-week (M, W, F) using electronic Vernier calipers. […] Body weight was measured three times-a-week and a loss of body weight >10% was used as an indication of lack of compound tolerability. […]
Dosing was continued for sixteen consecutive days. Tumor growth was measured three times-a-week (Monday, Wednesday, Friday) using electronic Vernier calipers. Body weight was measured three times-a-week and a loss of body weight >10% was used as an indication of lack of compound tolerability.

[2] = patients with relapsed and refractory AML; cited from earlier work

Cn1cncc1C(N)(c1ccc(Cl)cc1)c1ccc2c(c1)c(-c1cccc(Cl)c1)cc(=O)n2C (single isomer, unassigned; (+)) [Tipifarnib, (+)-6-[amino(4-chlorophenyl)(1-methyl-1H-imidazol-5-yl)methyl]-4-(3-chlorophenyl)-1-methyl-2(1H)-quinolinone]
increase in potency of Tipifarnib (Baf3-FLT3 cells): more than 3 fold | increase in potency of Tipifarnib (Baf3-ITD cells): more than 3 fold | overt toxicity ([1]; 9-day treatment): No overt toxicity | overt toxicity ([1]; 16-day treatment): No overt toxicity | response rate [2]: ~30%
